{
  "source": "ChEMBL document CHEMBL1201862",
  "about": "“PubChem BioAssay data set” (2004)",
  "key": {"[1]": {"molecular_target": "T1, Short transient receptor potential channel 4 (Mus musculus, UniProt Q9QUQ5)", "T1 sequence (Q9QUQ5 whole entry)": "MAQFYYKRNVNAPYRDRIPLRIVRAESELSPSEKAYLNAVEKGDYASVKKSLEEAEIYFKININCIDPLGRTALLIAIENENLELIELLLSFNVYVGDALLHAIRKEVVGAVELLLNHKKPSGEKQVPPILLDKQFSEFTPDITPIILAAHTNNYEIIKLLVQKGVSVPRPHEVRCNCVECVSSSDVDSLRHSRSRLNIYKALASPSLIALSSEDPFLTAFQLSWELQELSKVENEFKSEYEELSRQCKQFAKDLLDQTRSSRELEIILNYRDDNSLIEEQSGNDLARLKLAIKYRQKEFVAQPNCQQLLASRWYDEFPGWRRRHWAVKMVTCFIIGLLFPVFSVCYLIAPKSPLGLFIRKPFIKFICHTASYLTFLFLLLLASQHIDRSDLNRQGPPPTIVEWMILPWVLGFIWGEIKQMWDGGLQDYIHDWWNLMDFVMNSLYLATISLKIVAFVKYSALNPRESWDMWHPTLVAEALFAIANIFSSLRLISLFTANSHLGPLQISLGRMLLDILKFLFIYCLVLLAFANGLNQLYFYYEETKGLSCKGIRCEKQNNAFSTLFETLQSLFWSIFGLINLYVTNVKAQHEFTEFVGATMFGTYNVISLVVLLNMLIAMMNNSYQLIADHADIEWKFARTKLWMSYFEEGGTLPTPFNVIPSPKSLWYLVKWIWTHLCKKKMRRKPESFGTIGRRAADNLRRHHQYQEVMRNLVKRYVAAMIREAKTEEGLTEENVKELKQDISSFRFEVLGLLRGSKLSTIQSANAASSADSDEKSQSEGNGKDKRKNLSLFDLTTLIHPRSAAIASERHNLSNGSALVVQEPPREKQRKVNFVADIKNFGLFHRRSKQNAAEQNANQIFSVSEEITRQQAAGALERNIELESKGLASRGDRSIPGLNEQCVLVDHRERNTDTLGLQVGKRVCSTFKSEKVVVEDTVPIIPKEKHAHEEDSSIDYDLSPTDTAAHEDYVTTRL", "assay": "potentiation of DAMGO-evoked TRPC4 calcium signal – cell-based, HEK293 TRPC4/mu-opioid, Fluo-4 calcium, EC20 DAMGO, dose response (AID 434941)", "type": "functional"}, "[2]": {"assay": "blockade of melanocortin 4 receptor signaling – cell-based, plate reader, cherry pick, counter-screen for LGR2 antagonist project, dose response (AID 743444);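 also: transfected HEK 293 cells stimulated with alpha-MSH peptide; potency of inhibitors of the alpha-MSH evoked signal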", "type": "functional"}, "[3]": {"assay": "A549 cell cytotoxicity, dose response, cytotoxicity control, plate reader, cherry-pick, antagonist series (AID 743412)", "type": "functional, cell-based"}, "[4]": {"assay": "non-specific 3'UTR reporter inhibition in Clone20-Shn3RL – cell-based, Renilla luciferase, cherry-picked, counter-screen for Shn3 inhibitor project, dose response (AID 624133)", "type": "functional"}, "[5]": {"assay": "THP-1 cell cytotoxicity, dose response, cytotoxicity control for non-replicating M. tuberculosis project (AID 489025)", "type": "functional"}, "[6]": {"assay": "blockers of bursicon-stimulated LGR2 cAMP reporter – cell-based, HEK293, CRE-luciferase reporter, cherry pick, set 2, dose response (AID 743343);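 also: transfected cells were stimulated with diluted bursicon conditioned medium after compound addition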", "type": "functional"}, "[7]": {"assay": "reduction of Shn3 3'UTR-driven luciferase in osteoblasts – cell-based, Clone20 osteoblasts, firefly luciferase, cherry-picked, dose response (AID 624132);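 also: firefly luciferase luminescence from reporter carrying the Shn3 3'UTR in osteoblasts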", "type": "functional"}, "[8]": {"assay": "loss of viability in HepG2 cells – cell-based, CellTiter-Glo, cherry-picked, cytotoxicity control for Shn3 inhibitor project, dose response (AID 624134)", "type": "functional"}, "[9]": {"assay": "HepG2 cell cytotoxicity, dose response, cytotoxicity control for non-replicating M. tuberculosis project (AID 489018)", "type": "functional", "conditions": "Mycobacterium tuberculosis"}, "[10]": {"molecular_target": "T2, Rac GTPase-activating protein 1 (Homo sapiens, UniProt Q9H0H5)", "T2 sequence (Q9H0H5 whole entry)": "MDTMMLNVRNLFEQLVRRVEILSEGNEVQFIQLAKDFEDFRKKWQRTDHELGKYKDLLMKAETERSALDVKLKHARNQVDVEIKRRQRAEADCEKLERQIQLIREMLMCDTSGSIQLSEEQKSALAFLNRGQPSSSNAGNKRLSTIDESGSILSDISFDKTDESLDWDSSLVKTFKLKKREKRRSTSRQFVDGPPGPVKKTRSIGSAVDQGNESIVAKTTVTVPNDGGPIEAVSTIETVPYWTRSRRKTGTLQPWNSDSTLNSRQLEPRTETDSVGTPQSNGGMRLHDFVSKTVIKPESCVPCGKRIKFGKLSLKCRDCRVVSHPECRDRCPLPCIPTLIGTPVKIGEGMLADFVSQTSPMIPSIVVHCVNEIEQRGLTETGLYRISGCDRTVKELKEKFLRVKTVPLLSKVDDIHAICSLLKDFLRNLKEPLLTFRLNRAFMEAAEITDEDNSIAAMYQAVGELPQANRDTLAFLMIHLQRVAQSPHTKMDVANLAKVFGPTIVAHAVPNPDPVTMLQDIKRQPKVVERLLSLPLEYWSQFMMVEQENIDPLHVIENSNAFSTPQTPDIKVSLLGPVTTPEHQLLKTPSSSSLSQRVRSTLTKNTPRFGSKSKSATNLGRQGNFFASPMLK", "assay": "blockers of MgcRacGAP-driven Rac1 GTP hydrolysis – biochemical, ADP Hunter fluorescence, primary and confirmatory, confirmation (AID 624330)", "type": "functional"}, "cells": {"assay": "cells", "type": "functional"}, "[11]": {"assay": "microbe, parasite or virus in culture", "type": "functional", "conditions": "Mycobacterium tuberculosis"}, "[12]": {"assay": "viability loss in HeLa cells – cytotoxicity control for MgcRacGAP inhibitor project, dose response (AID 624300)", "type": "functional"}, "[13]": {"assay": "toxicity toward HepG2 liver cells – cell-based, plate reader, cherry-pick, antagonist series, cytotoxicity control, dose response (AID 743416)", "type": "functional"}, "[14]": {"molecular_target": "T3, Sphingosine 1-phosphate receptor 4 (Homo sapiens, UniProt O95977)", "T3 sequence (O95977 whole entry)": "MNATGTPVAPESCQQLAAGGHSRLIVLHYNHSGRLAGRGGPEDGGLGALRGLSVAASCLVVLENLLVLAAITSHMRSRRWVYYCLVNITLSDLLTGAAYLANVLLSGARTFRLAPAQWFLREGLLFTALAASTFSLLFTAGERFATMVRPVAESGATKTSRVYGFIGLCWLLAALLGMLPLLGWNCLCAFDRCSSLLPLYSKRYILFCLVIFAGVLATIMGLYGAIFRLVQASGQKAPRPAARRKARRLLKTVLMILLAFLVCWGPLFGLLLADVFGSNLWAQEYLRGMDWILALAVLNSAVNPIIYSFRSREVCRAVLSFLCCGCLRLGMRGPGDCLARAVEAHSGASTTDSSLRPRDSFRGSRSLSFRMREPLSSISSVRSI", "assay": "potency of S1P4 activators – cell-based, fluorescence, synthesized compounds, late-stage follow-up (AID 463107)", "type": "functional"}, "[15]": {"molecular_target": "T4, Lysosomal acid glucosylceramidase (Homo sapiens, UniProt P04062)", "T4 sequence (P04062 whole entry)": "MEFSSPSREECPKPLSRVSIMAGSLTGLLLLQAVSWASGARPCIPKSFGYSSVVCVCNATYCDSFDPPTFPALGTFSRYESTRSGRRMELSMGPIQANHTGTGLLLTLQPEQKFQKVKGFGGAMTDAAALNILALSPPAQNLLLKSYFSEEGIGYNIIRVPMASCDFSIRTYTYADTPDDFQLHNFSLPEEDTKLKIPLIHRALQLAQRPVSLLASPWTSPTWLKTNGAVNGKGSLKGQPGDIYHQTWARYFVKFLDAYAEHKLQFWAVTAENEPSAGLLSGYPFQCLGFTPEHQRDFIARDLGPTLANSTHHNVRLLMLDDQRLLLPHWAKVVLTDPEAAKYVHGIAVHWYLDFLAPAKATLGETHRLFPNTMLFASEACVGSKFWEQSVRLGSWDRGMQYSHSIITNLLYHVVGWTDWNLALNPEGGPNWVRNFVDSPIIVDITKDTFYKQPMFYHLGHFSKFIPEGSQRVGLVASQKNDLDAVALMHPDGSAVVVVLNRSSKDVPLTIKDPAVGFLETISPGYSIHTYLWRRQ", "assay": "Dose response cell-based high throughput screening assay to identify enhancers of beta-glucosidase activity. [Related pubchem assays: 784 ]", "type": "functional"}, "Cytochrome P450 2D6": {"molecular_target": "Cytochrome P450 2D6 (Homo sapiens, UniProt P10635)", "sequence (P10635 whole entry)": "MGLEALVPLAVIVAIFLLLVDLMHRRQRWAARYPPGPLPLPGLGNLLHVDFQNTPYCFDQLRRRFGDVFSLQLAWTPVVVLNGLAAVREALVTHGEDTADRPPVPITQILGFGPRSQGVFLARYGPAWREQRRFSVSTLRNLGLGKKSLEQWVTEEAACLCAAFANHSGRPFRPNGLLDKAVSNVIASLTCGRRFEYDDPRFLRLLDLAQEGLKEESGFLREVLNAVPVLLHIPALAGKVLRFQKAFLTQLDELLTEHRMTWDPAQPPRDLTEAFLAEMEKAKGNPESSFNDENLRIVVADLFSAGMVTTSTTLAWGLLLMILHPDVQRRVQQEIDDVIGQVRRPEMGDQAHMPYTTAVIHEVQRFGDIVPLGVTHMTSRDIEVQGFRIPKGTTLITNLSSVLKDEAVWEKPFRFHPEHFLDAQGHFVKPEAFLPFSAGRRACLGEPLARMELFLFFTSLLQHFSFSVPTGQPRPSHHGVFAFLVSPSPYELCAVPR"}, "[16]": {"molecular_target": "G-protein coupled receptor 55 (Homo sapiens, UniProt Q9Y2T6)", "sequence (Q9Y2T6 whole entry)": "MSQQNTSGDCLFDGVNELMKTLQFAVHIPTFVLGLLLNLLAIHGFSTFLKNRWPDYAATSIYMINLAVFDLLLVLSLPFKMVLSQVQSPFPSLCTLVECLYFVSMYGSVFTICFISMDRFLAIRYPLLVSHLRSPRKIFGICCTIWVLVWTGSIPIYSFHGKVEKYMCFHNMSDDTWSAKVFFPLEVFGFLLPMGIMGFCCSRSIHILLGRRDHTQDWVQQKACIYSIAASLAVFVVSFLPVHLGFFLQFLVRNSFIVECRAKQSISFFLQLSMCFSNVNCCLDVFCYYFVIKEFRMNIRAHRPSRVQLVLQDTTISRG", "assay": "selective activators of receptor GPR55 – imaging, U2OS cells, beta-arrestin-GFP redistribution, primary screen (AID 1961)", "type": "functional"}, "[17]": {"assay": "viability loss of HPDE-C7K cells – cell-based, fluorescence, HTS, primary screen (AID 431)", "type": "functional", "conditions": "Homo sapiens"}, "[18]": {"assay": "viability of PTEN-deleted HCT116 cells – cell-based, HCT116 PTEN knockout, dose response (AID 1047);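 also: HCT116 colon tumor cells with PTEN knocked out; cells exposed to compound for 60 hours before readout; potency for loss of cell viability measured by luminescence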", "type": "functional"}, "[19]": {"assay": "viability of HCT116 lacking mutant beta-catenin – cell-based, human colon tumor, dose response (AID 1045);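 also: HCT116 colon tumor cells with beta catenin knocked out; cells exposed to compound for 60 hours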", "type": "functional"}, "[20]": {"assay": "HPDE-C7 pancreatic duct cell viability loss – fluorescence, HTS (AID 430)", "type": "functional, cell-based", "conditions": "Homo sapiens"}},
  "note": "Activity calls are given as the source filed them.",
  "data": [
    {"smiles": "CC1Cc2ccccc2N1C(=O)CSc1nc2c(c(=O)n(C)c(=O)n2C)n1Cc1ccc(F)cc1", "note": "(stereo not drawn)", "values": [
      {"measurement": "EC50", "setting": "[1]", "result": "1.33 µM (active)"}
    ]},
    {"smiles": "CCn1c2ccccc2c2cc(CNCc3ccc(OC)cc3OC)ccc21", "values": [
      {"measurement": "AC50", "setting": "[2]", "result": "32.9 µM (active)"},
      {"measurement": "AC50", "setting": "[3]", "result": "13.6 µM (active)"},
      {"measurement": "AC50", "setting": "[4]", "result": "14.8 µM (active)"},
      {"measurement": "CC50", "setting": "[5]", "result": "16.7 µM (active)"},
      {"measurement": "AC50", "setting": "[6]", "result": "18.6 µM (active)"},
      {"measurement": "AC50", "setting": "[7]", "result": "14.7 µM (active)"},
      {"measurement": "AC50", "setting": "[8]", "result": "16.9 µM (active)"},
      {"measurement": "CC50", "setting": "[9]", "result": "15.6 µM (active)"},
      {"measurement": "IC50", "setting": "[10]", "result": "99.7 µM (active)"},
      {"measurement": "IC50", "setting": "cells", "result": "12.8 µM (active)"},
      {"measurement": "CC50", "setting": "[11]", "result": "19.3 µM (active)"},
      {"measurement": "CC50", "setting": "[12]", "result": "37 µM (active)"},
      {"measurement": "AC50", "setting": "[13]", "result": "13.8 µM (active)"}
    ]},
    {"smiles": "Cc1ccc(OCCOc2ccccc2)c([N+](=O)[O-])n1", "values": [
      {"measurement": "EC50", "setting": "[14]", "result": "> 50 µM (inactive)"}
    ]},
    {"smiles": "FC(F)(F)c1ccc(N2CCOCC2)c(Nc2nc3ccccc3n3cnnc23)c1", "values": [
      {"measurement": "EC50", "setting": "[15]", "result": "> 50 µM (not active)"},
      {"measurement": "AC50", "setting": "Cytochrome P450 2D6", "result": "28.2 µM (inconclusive)"},
      {"measurement": "EC50", "setting": "[16]", "result": "4.18 µM (active)"},
      {"measurement": "EC50", "setting": "[17]", "result": "5.98 µM (active)"},
      {"measurement": "EC50", "setting": "[18]", "result": "13.5 µM (active)"},
      {"measurement": "CC50", "setting": "[11]", "result": "27.4 µM (active)"},
      {"measurement": "EC50", "setting": "[19]", "result": "16.5 µM (active)"},
      {"measurement": "EC50", "setting": "[20]", "result": "5.89 µM (active)"}
    ]}
  ]
}
